{
  "source": "patent US8541210B2",
  "about": "“Producing eicosapentaenoic acid (EPA) from biodiesel-derived crude glycerol” (Virginia Tech Intellectual Properties, Inc., priority 2008, dated 2013)",
  "key": {"P. irregulare": {"test_system": "P. irregulare", "test": "Effects of methanol on fungal growth", "type": "cell-based, Pythium irregulare", "conditions": "20 g/L pure glycerol spiked with 2, 4, and 8 g/L methanol; filter-sterilised; spores inoculated", "from_the_text": "The crude glycerol used in this work contained ˜12% (w/w) methanol. […] To study the “true” effects of methanol on fungal growth and EPA production, we prepared a medium containing 20 g/L pure glycerol spiked with 2, 4, and 8 g/L methanol. The medium was then passed through a 0.2 μm filter before fungal spores were inoculated. […] The result clearly indicated the negative effects of methanol on growth and EPA production of P. irregulare."}, "[1]": {"test_system": "Pythium irregulare (ATCC 10951)", "test": "Growth and EPA production of P. irregulare with glucose, pure glycerol or crude glycerol as carbon source", "type": "cell-based", "conditions": "FIG. 1A; substrate around 20 g/L"}},
  "data": [
    {"molecule": "CO", "note": "[methanol]", "values": [
      {"measurement": "growth in methanol-containing medium", "setting": "P. irregulare", "result": "did not observe any growth"}
    ]},
    {"molecule": "OCC(O)CO", "note": "[Pure glycerol, glycerol]", "values": [
      {"measurement": "cell growth", "setting": "[1]", "result": "supported cell growth"}
    ]}
  ]
}
